Test results: patent US5840684A, “Glycopeptide antibiotic derivatives” (Eli Lilly and Company, priority 1995, dated 1998)
Converted amounts (≈) assume the structure as drawn.

Legend:
[1] = tested on: Staphylococcus aureus SA1199B; format: cell-based
Method: (§1) The MIC's were determined using a standard broth micro-dilution assay.

[2] = tested on: Entercoccus faecium 180-1; assay: broth micro-dilution MIC; format: cell-based
Method: as §1

Entercoccus faecium 276 = assay: broth micro-dilution MIC; format: cell-based
Method: as §1

[3] = tested on: Staphylococcus aureus 446; assay: broth micro-dilution MIC; format: cell-based
Method: as §1

[4] = tested on: Staphylococcus aureus 447; assay: broth micro-dilution MIC; format: cell-based
Method: as §1

[5] = tested on: Staphylococcus aureus 491; assay: broth micro-dilution MIC; format: cell-based
Method: as §1

[6] = tested on: Staphylococcus aureus SA1199A; assay: broth micro-dilution MIC; format: cell-based
Method: as §1

[7] = tested on: Staphylococcus aureus SA1199; assay: broth micro-dilution MIC; format: cell-based
Method: as §1

[8] = tested on: Staphylococcus aureus X778; assay: broth micro-dilution MIC; format: cell-based
Method: as §1

[9] = tested on: Streptococcus pyogenes C203; assay: broth micro-dilution MIC; format: cell-based
Method: as §1

Entercoccus faecium 180 = assay: broth micro-dilution MIC; format: cell-based; conditions: Entercoccus faecium 180
Method: (§2) The formula I compounds have in vitro and in vivo activity against Gram-positive pathogenic bacteria. The MIC's were determined using a standard broth micro-dilution assay.

Entercoccus faecium 2041 = assay: broth micro-dilution MIC; format: cell-based; conditions: Entercoccus faecium 2041
Method: as §2

[10] = tested on: Enterococcus gallinarum 245; assay: broth micro-dilution MIC; format: cell-based; conditions: Enterococcus gallinarum 245
Method: as §2

[11] = tested on: Haemophilus influenzae RD; assay: broth micro-dilution MIC; format: cell-based; conditions: Haemophilus influenzae RD
Method: as §2

[12] = tested on: Staphylococcus epidermidis 270; assay: broth micro-dilution MIC; format: cell-based
Method: as §2

[13] = tested on: Staphylococcus haemolyticus 105; assay: broth micro-dilution MIC; format: cell-based
Method: as §2

[14] = tested on: Staphylococcus haemolyticus 415; assay: broth micro-dilution MIC; format: cell-based
Method: as §2

[15] = tested on: Streptococcus pneumoniae P1; assay: broth micro-dilution MIC; format: cell-based
Method: as §2

[16] = tested on: vancomycin-resistant enterococci; assay: broth micro-dilution, mean geometric MIC; format: cell-based, Enterococcus faecium and Enterococcus faecalis; conditions: enterococci, 24-hour incubation
[17] = tested on: vancomycin-susceptible enterococci; assay: broth micro-dilution, mean geometric MIC; format: cell-based, Enterococcus faecium and Enterococcus faecalis; conditions: enterococci, 24-hour incubation
[18] = tested on: Staphylococcus aureus S13E; format: cell-based
Method: as §1

[19] = tested on: Staphylococcus aureus 489; assay: broth micro-dilution MIC; format: cell-based
Method: as §1

[20] = tested on: Staphylococcus aureus X400; assay: broth micro-dilution MIC; format: cell-based
Method: as §1

Compound | MIC [1] [µg/mL] | MIC [2] [µg/mL] | MIC (Entercoccus faecium 276) [µg/mL] | MIC [3] [µg/mL] | MIC [4] [µg/mL] | MIC [5] [µg/mL] | MIC [6] [µg/mL] | MIC [7] [µg/mL] | MIC [8] [µg/mL] | MIC [9] [µg/mL] | MIC (Entercoccus faecium 2041) [µg/mL] | MIC [10] [µg/mL] | MIC [11] [µg/mL] | MIC [12] [µg/mL] | MIC [13] [µg/mL] | MIC [14] [µg/mL] | MIC [15] [µg/mL] | mean geometric MIC, Vancomycin Resistant Strains [16] [µg/mL] | mean geometric MIC, Vancomycin Sensitive Strains [17] [µg/mL] | MIC [19] [µg/mL] | other results
CNC(CC(C)C)C(=O)NC1C(=O)NC(CC(N)=O)C(=O)NC2C(=O)NC3C(=O)NC(C(=O)NC(C(=O)O)c4cc(O)cc(O)c4-c4cc3ccc4O)C(OC3CC(C)(N)C(O)C(C)O3)c3ccc(c(Cl)c3)Oc3cc2cc(c3OC2OC(CO)C(O)C(O)C2OC2CC(C)(NCCCc3ccc(OC)cc3)C(O)C(C)O2)Oc2ccc(cc2Cl)C1O (stereo not drawn) [Compound 175] | ≤ 0.06 | ≤ 0.06 | ≤ 0.06 | 1 (≈ 0.574 µM) | 1 (≈ 0.574 µM) | 0.5 (≈ 0.287 µM) | 0.5 (≈ 0.287 µM) | ≤ 0.06 | 0.5 (≈ 0.287 µM) | 0.5 (≈ 0.287 µM) | ≤ 0.06 | 4 (≈ 2.3 µM) | 16 (≈ 9.19 µM) | 0.5 (≈ 0.287 µM) | 2 (≈ 1.15 µM) | 4 (≈ 2.3 µM) | 0.5 (≈ 0.287 µM) | 9.5 | 0.22 |  | MIC (Entercoccus faecium 180): 1 µg/mL (≈ 0.574 µM)
CNC(CC(C)C)C(=O)NC1C(=O)NC(CC(N)=O)C(=O)NC2C(=O)NC3C(=O)NC(C(=O)NC(C(=O)O)c4cc(O)cc(O)c4-c4cc3ccc4O)C(OC3CC(C)(N)C(O)C(C)O3)c3ccc(c(Cl)c3)Oc3cc2cc(c3OC2OC(CO)C(O)C(O)C2OC2CC(C)(NCc3ccc4cc(C)ccc4c3)C(O)C(C)O2)Oc2ccc(cc2Cl)C1O (stereo not drawn) [Compound 189] | 1 (≈ 0.573 µM) | ≤ 0.06 |  | 0.5 (≈ 0.286 µM) | 0.5 (≈ 0.286 µM) | ≤ 0.06 | ≤ 0.06 | 0.5 (≈ 0.286 µM) |  | ≤ 0.06 | ≤ 0.06 | 1 (≈ 0.573 µM) | 32 (≈ 18.3 µM) |  | 1 (≈ 0.573 µM) | 1 (≈ 0.573 µM) | ≤ 0.06 | 2.4 | 0.10 | 1 (≈ 0.573 µM) | MIC [18]: 0.5 µg/mL (≈ 0.286 µM)
CNC(CC(C)C)C(=O)NC1C(=O)NC(CC(N)=O)C(=O)NC2C(=O)NC3C(=O)NC(C(=O)NC(C(=O)O)c4cc(O)cc(O)c4-c4cc3ccc4O)C(OC3CC(C)(N)C(O)C(C)O3)c3ccc(c(Cl)c3)Oc3cc2cc(c3OC2OC(CO)C(O)C(O)C2OC2CC(C)(NCCCC3CCCC3)C(O)C(C)O2)Oc2ccc(cc2Cl)C1O (stereo not drawn) [Compound 208] | 0.5 (≈ 0.294 µM) | ≤ 0.06 |  | 1 (≈ 0.587 µM) | 1 (≈ 0.587 µM) | 0.5 (≈ 0.294 µM) | ≤ 0.06 | 0.5 (≈ 0.294 µM) |  | ≤ 0.06 | ≤ 0.06 | 2 (≈ 1.17 µM) | 32 (≈ 18.8 µM) | 0.5 (≈ 0.294 µM) |  | 2 (≈ 1.17 µM) | ≤ 0.06 | 2.8 | 0.17 | 0.5 (≈ 0.294 µM) | 
CNC(CC(C)C)C(=O)NC1C(=O)NC(CC(N)=O)C(=O)NC2C(=O)NC3C(=O)NC(C(=O)NC(C(=O)O)c4cc(O)cc(O)c4-c4cc3ccc4O)C(OC3CC(C)(N)C(O)C(C)O3)c3ccc(c(Cl)c3)Oc3cc2cc(c3OC2OC(CO)C(O)C(O)C2OC2CC(C)(NCCCCC#Cc3ccccc3)C(O)C(C)O2)Oc2ccc(cc2Cl)C1O (stereo not drawn) [Compound 235] | 0.5 (≈ 0.286 µM) | ≤ 0.06 | 0.125 (≈ 0.0715 µM) | 0.5 (≈ 0.286 µM) |  | 0.125 (≈ 0.0715 µM) | ≤ 0.06 |  | 0.5 (≈ 0.286 µM) | ≤ 0.06 | ≤ 0.06 | 1 (≈ 0.572 µM) | 8 (≈ 4.57 µM) | 0.5 (≈ 0.286 µM) | 0.5 (≈ 0.286 µM) | 1 (≈ 0.572 µM) | ≤ 0.06 | 2.4 |  | 0.5 (≈ 0.286 µM) | MIC [18]: 0.125 µg/mL (≈ 0.0715 µM); MIC [20]: 0.125 µg/mL (≈ 0.0715 µM); MIC (Entercoccus faecium 180): 0.5 µg/mL (≈ 0.286 µM)
